This note sets out measurements from patent US20240051970A1, “COMPOUNDS AND COMPOSITIONS FOR TREATING CONDITIONS ASSOCIATED WITH STING ACTIVITY” (IFM Due, Inc., priority 2020, published 2024).

In this test the target is T1, hSTING (Homo sapiens, UniProt Q86WV6, G230A/H232R/R293Q/R71H).
T1 construct: host or cells: THP1-Dual KO-IFNAR2 cells
T1 sequence (Q86WV6 whole entry R71H/G230A/H232R/R293Q): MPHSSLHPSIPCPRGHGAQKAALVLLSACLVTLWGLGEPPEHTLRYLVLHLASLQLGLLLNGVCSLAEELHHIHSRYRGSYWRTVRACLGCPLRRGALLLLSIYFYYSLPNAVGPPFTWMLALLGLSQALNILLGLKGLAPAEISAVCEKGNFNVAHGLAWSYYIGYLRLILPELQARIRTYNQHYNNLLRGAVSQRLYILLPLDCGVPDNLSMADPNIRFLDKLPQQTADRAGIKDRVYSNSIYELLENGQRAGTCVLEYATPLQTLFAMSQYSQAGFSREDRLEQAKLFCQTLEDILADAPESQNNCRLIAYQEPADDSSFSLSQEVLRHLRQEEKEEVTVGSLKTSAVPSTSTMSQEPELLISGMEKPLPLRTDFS
The test can be described thus: STING reporter assay (luciferase) in THP1-Dual KO-IFNAR2 cells activated with 2'3'cGAMP. Type of test: cell-based. The settings on record: 15 μM 2'3'cGAMP, 24 h. The protocol:
STING pathway activation by the compounds described herein was measured using THP1-Dual™ cells (KO-IFNAR2).
THP1-Dual™ KO-IFNAR2 Cells (obtained from invivogen) were maintained in RPMI, 10% FCS, 5 ml P/S, 2 mM L-glut, 10 mM Hepes, and 1 mM sodium pyruvate. Compounds were spotted in empty 384 well tissue culture plates (Greiner 781182) by Echo for a final concentration of 0.0017-100 μM. Cells were plated into the TC plates at 40 μL per well, 2×10E6 cells/mL. For activation with STING ligand, 2′3′cGAMP (MW 718.38, obtained from Invivogen), was prepared in Optimem media.
The following solutions were prepared for each 1×384 plate: • Solution A: 2 mL Optimem with one of the following stimuli: • 60 μL of 10 mM 2′3′cGAMP 4 150 μM stock • Solution B: 2 mL Optimem with 60 μL Lipofectamine 2000 4 Incubate 5 min at RT
2 mL of solution A and 2 ml Solution B was mixed and incubated for 20 min at room temperature (RT). 20 μL of transfection solution (A+B) was added on top of the plated cells, with a final 2′3′cGAMP concentration of 15 μM. The plates were then centrifuged immediately at 340 g for 1 minute, after which they were incubated at 37° C., 5% CO2, >98% humidity for 24 h. Luciferase reporter activity was then measured. EC50 values were calculated by using standard methods known in the art.
Luciferase reporter assay: 10 μL of supernatant from the assay was transferred to white 384-plate with flat bottom and squared wells. One pouch of QUANTI-Luc™ Plus was dissolved in 25 mL of water. 100 μL of QLC Stabilizer per 25 mL of QUANTI-Luc™ Plus solution was added. 50 μL of QUANTI-Luc™ Plus/QLC solution per well was then added. Luminescence was measured on a Platereader (e.g., Spectramax I3X (Molecular Devices GF3637001)).
Luciferase reporter activity was then measured. EC50 values were calculated by using standard methods known in the art.
For orientation: Reporter assays use an easily measured gene product as a stand-in for the process of interest.
The EC50 is the midpoint of the concentration-response curve. High values mean a less potent agent, low ones a more potent agent. On to `Clc1cc(Nc2nc3cc(-c4cnn(C5CCOCC5)c4)ccc3[nH]2)cc2[nH]ccc12` [Compound 159, N-(4-chloro-1H-indol-6-yl)-5-[1-(oxan-4-yl)-1H-pyrazol-4-yl]-1H-1,3-benzodiazol-2-amine], for which the EC50 was 200 to 1000 nM.
In turn, `CC(C)(C)OC(=O)NC1CCC(c2ccc3[nH]c(Nc4cc(Cl)c5cc[nH]c5c4)nc3c2)CC1` (stereo not shown) [Compound 148, tert-butyl N-(4-{2-[(4-chloro-1H-indol-6-yl)amino]-1H-1,3-benzodiazol-5-yl}cyclohexyl)carbamate] gave an EC50 of 200 to 1000 nM.
In the case of `N#CC1(c2ccc(-c3ccc4[nH]c(Nc5cc(Cl)c6cc[nH]c6c5)nc4c3)cc2)CC1` [Compound 149, 1-(4-{2-[(4-chloro-1H-indol-6-yl)amino]-1H-1,3-benzodiazol-5-yl}phenyl)cyclopropane-1-carbonitrile] it was 200 to 1000 nM.
Under `CC(C)(C)OC(=O)N1CCCC(c2ccc3[nH]c(Nc4cc(Cl)c5cc[nH]c5c4)nc3c2)C1` (stereo not shown) [Compound 151, tert-butyl 3-{2-[(4-chloro-1H-indol-6-yl)amino]-1H-1,3-benzodiazol-5-yl}piperidine-1-carboxylate] stands 200 to 1000 nM; under `FC(F)(F)Oc1ccc(-c2ccc3[nH]c(Nc4cc(Cl)c5cc[nH]c5c4)nc3c2)cc1` [Compound 170, N-(4-chloro-1H-indol-6-yl)-5-[4-(trifluoromethoxy)phenyl]-1H-1,3-benzodiazol-2-amine], 200 to 1000 nM.
Take `Clc1cc(Nc2nc3ccc(C4CCC4)cc3[nH]2)cc2[nH]ccc12` [Compound 108, N-(4-chloro-1H-indol-6-yl)-6-cyclobutyl-1H-benzo[d]imidazol-2-amine]: the EC50 was in the range of 200 to 1000 nM.
In the case of `COCCn1c(Nc2cc(Cl)c3cc[nH]c3c2)nc2cc(Cl)c(Cl)cc21` [Compound 104, 5,6-dichloro-N-(4-chloro-1H-indol-6-yl)-1-(2-methoxyethyl)-1H-benzo[d]imidazol-2-amine] it was 1000 to 5000 nM; in that of `FC(F)(F)c1cc2[nH]c(Nc3cc(Cl)c4cc[nH]c4c3)nc2cn1` [Compound 111, N-(4-chloro-1H-indol-6-yl)-6-(trifluoromethyl)-1H-imidazo[4,5-c]pyridin-2-amine], 200 to 1000 nM; in that of `Clc1ccc2c(c1)nc(Nc1cc(Cl)c3cc[nH]c3c1)n2CCc1ccccc1` [Compound 107, 5-chloro-N-(4-chloro-1H-indol-6-yl)-1-phenethyl-1H-benzo[d]imidazol-2-amine], 1000 to 5000 nM.
Consider `N#Cc1cncc(-c2ccc3[nH]c(Nc4cc(Cl)c5cc[nH]c5c4)nc3c2)c1` [Compound 167, 5-{2-[(4-chloro-1H-indol-6-yl)amino]-1H-1,3-benzodiazol-5-yl}pyridine-3-carbonitrile], for which the EC50 was in the range of 200 to 1000 nM.
On to `Fc1c[nH]c2cc(Nc3nc4cc(Cl)c(Cl)cc4[nH]3)ccc12` [Compound 174, 5,6-dichloro-N-(3-fluoro-1H-indol-6-yl)-1H-1,3-benzodiazol-2-amine], for which the EC50 lay within 40 to 200 nM.
Under `Clc1cc(Nc2nc3cc(C4CCCOC4)ccc3[nH]2)cc2[nH]ccc12` (stereo not shown) [Compound 141, N-(4-chloro-1H-indol-6-yl)-5-(oxan-3-yl)-1H-1,3-benzodiazol-2-amine] stands 200 to 1000 nM; under `N#Cc1ccc2[nH]c(Nc3cc(Cl)c4cc[nH]c4c3)nc2c1` [Compound 116, 2-((4-chloro-1H-indol-6-yl)amino)-1H-benzo[d]imidazole-5-carbonitrile], 200 to 1000 nM.
In the case of `CC(C)n1cc(-c2ccc3[nH]c(Nc4cc(Cl)c5cc[nH]c5c4)nc3c2)cn1` [Compound 155, N-(4-chloro-1H-indol-6-yl)-5-[1-(propan-2-yl)-1H-pyrazol-4-yl]-1H-1,3-benzodiazol-2-amine] it was 200 to 1000 nM.
Under `Clc1cc(Nc2nc3cc(C4CCOCC4)ccc3[nH]2)cc2[nH]ccc12` [Compound 161, N-(4-chloro-1H-indol-6-yl)-5-(oxan-4-yl)-1H-1,3-benzodiazol-2-amine] stands 200 to 1000 nM; under `Clc1cc(Nc2nc3cc(-c4ccc(CN5CCOCC5)s4)ccc3[nH]2)cc2[nH]ccc12` [Compound 145, N-(4-chloro-1H-indol-6-yl)-5-{5-[(morpholin-4-yl)methyl]thiophen-2-yl}-1H-1,3-benzodiazol-2-amine], 200 to 1000 nM; under `FC(F)n1cc(-c2ccc3[nH]c(Nc4cc(Cl)c5cc[nH]c5c4)nc3c2)cn1` [Compound 163, N-(4-chloro-1H-indol-6-yl)-5-[1-(difluoromethyl)-1H-pyrazol-4-yl]-1H-1,3-benzodiazol-2-amine], 200 to 1000 nM.
On to `CC(C)(O)CCc1ccc2[nH]c(Nc3cc(Cl)c4cc[nH]c4c3)nc2c1` [Compound 173, 4-{2-[(4-chloro-1H-indol-6-yl)amino]-1H-1,3-benzodiazol-5-yl}-2-methylbutan-2-ol], for which the EC50 lay in the range of 200 to 1000 nM.
In the case of `CCOC(=O)C1CCC(c2ccc3[nH]c(Nc4cc(Cl)c5cc[nH]c5c4)nc3c2)CC1` (stereo not shown) [Compound 138, ethyl 4-{2-[(4-chloro-1H-indol-6-yl)amino]-1H-1,3-benzodiazol-5-yl}cyclohexane-1-carboxylate] it was 1000 to 5000 nM; in that of `CCn1c(Nc2ccc3cc[nH]c3c2)nc2cc(C(F)(F)F)ccc21` [Compound 122, 1-ethyl-N-(1H-indol-6-yl)-5-(trifluoromethyl)-1H-benzo[d]imidazol-2-amine], 1000 to 5000 nM; in that of `Clc1cc(Nc2nc3cc(Br)ccc3[nH]2)cc2[nH]ccc12` [Compound 119, 5-bromo-N-(4-chloro-1H-indol-6-yl)-1H-benzo[d]imidazol-2-amine], 200 to 1000 nM.
Under `Fc1cc(Nc2nc3cc(Cl)c(Cl)cc3[nH]2)cc2[nH]ccc12` [Compound 105, 5,6-dichloro-N-(4-fluoro-1H-indol-6-yl)-1H-benzo[d]imidazol-2-amine] stands 200 to 1000 nM; under `CN(C)CCn1cc(-c2ccc3[nH]c(Nc4cc(Cl)c5cc[nH]c5c4)nc3c2)cn1` [Compound 147, N-(4-chloro-1H-indol-6-yl)-5-{1-[2-(dimethylamino)ethyl]-1H-pyrazol-4-yl}-1H-1,3-benzodiazol-2-amine], 5000 to 100000 nM; under `FC(F)(F)c1cnc2nc(Nc3cc(Cl)c4cc[nH]c4c3)[nH]c2c1` [Compound 112, N-(4-chloro-1H-indol-6-yl)-6-(trifluoromethyl)-1H-imidazo[4,5-b]pyridin-2-amine], 200 to 1000 nM.
For `Cn1c(Nc2ccc3cc[nH]c3c2)nc2ccc(C(F)(F)F)cc21` [Compound 114, N-(1H-indol-6-yl)-1-methyl-6-(trifluoromethyl)-1H-benzo[d]imidazol-2-amine], the EC50 fell in the range of 1000 to 5000 nM.
